From patent publication US9149489B2, “Inhibitors of glycolysis useful in the treatment of brain tumors” (Board of Regents, University of Texas System, priority 2006, dated 2015)
Like-named read-outs stand apart in the source and are kept apart here.

Key:
[1] = system: orthotopic glioma model; assay: Orthotopic glioma model, antitumor activity in vivo; settings: compared with temozolomide
[2] = system: U87 glioblastoma cells; assay: U87 cell viability (MTT) assay under normoxia and hypoxia; assay type: cell-based, human; settings: for IC50: Homo sapiens, U-87 MG, 72 h
Experimental: (§1) Cell viability experiments were carried out in U87 glioblastoma cells with 8000 cells/well in flat bottom 96 well plates. The cells were grown in low glucose (5.4 mM) DMEM/F12 media with 10% FBS and antibiotics. 24 hours after plating, cells were treated with increasing concentration of 2-deoxy-2,2-difluoro-D-arabino-hexopyranose (DFG) for 72 hours in normoxic (21% O2) or hypoxic (0.1% O2) conditions. In addition, to test the ability of monosachamides to compete with DFG in inhibiting glycolysis and glycosylation, cells were treated with increasing concentrations of glucose, mannose or galactose. The experiments were carried out in duplicate (n=2).
(§2) U87 human glioma cancer cells were obtained from the American Type Culture Collection (Manassas, Va.) and maintained in a humidified atmosphere containing 5% CO2 at 37° C. Cells were routinely cultured in DMEM/F12 medium (Invitrogen Corp., Grand Island, N.Y.) supplemented with 10% heat inactivated fetal bovine serum (Hyclone Laboratories Inc., Logan, Utah), 50 IU/ml penicillin and […] streptomycin from GIBCO (Invitrogen). Cell viability experiments were carried out in U87 cells with 8000 cells/well in flat bottom 96 well plates. The cells were grown in low glucose (5.4 mM) DMEM/F12 media supplied with 10% FBS and antibiotics. 24 hours after plating, cells were treated with increasing concentration (1 to 10 mM) of 2-difluoro-D-glucose (DFG) for 72 hours in normoxic (21% O2) or hypoxic (approximately 0.1% O2) conditions. To test the competing ability of glucose, galactose and mannose with DFG, the cells were also treated with increasing concentration of the glucose (5, 10, and 20 mM), galactose (5, 10, and 20 mM) or mannose (0.1, 1, and 5 mM). The experiments were carried out in duplicate (n=2). After 72 hours of treatment, inhibition of cellular proliferation was assessed by the MTT assay. Absorbance was read at a wavelength of 570 nm using a V Max Micro plate reader by Molecular Devices, Inc. (Sunnyvale, Calif.). The cytoctoxicity of 2-DFG was calculated by normalization to the 100% viability of the control (untreated cells) and presented as percent control.

[3] = system: U87 cells; assay: Acridine orange staining of acidic vesicular organelles (AVO), autophagy; assay type: cell-based, human; settings: 72 hours, increasing concentrations, hypoxia and normoxia
Experimental: FIGS. 14a through 14f provide the quantification of 2-DFG induced autophagy in U87 glioma cells after 72 h of normoxia treatment in 5.6 mM low glucose media using acridine orange-acid vesicular organelles (AVO) straining assay.
FIGS. 15a through 15f provide the quantification of 2-DFG induced autophagy in U87 glioma cells after 72 h of hypoxia treatment in 5.6 mM low glucose media using acridine orange-acid vesicular organelles (AVO) straining assay.
(§3) To test the ability of the 2-DFG to induce autophagic cell death, we monitored the increase in acidic vesicular organelles (AVO) using acridine orange staining in U87 cells treated with increasing concentrations of 2-DFG for 72 hours under hypoxia and normoxia. […] Therefore, targeting the energetic metabolism of cancer cells and the autophagic survival response using inhibitors of glycolysis is a promising therapeutic approach for the treatment of cancers that are dependent on glycolysis for survival.

[4] = system: U87 cells; assay: Cell cycle analysis; assay type: cell-based, human; settings: 5 mM, 72 h
[5] = system: U87 glioblastoma cells; assay: U87 cell viability assay with co-treatment by D-glucose, D-mannose or D-galactose (competition); assay type: cell-based, human; settings: for Viability Protection by D-Mannose Under Hypoxia (IC50 shift) / Viability Protection by D-Mannose Under Normoxia (IC50 shift): co-treatment with 0.1 mM of D-mannose; for Viability Protection by D-Galactose Under Hypoxia (IC50 shift) / Viability Protection by D-Galactose Under Normoxia (IC50 shift): co-treatment with 5 mM of D-galactose; for Viability Protection by D-Glucose Under Hypoxia (IC50 shift) / Viability Protection by D-Glucose Under Normoxia (IC50 shift): co-treatment with 5 mM of D-glucose
Experimental: as §1, §2

[6] = system: U87 cells; assay: Transmission electron microscopy / detection of autophagosomes; assay type: cell-based, human
Experimental: FIGS. 16a through 16d provides electron micrographs of 2-DFG induced autophagy in U87 cells (5 mM, 72 h treatment, 5.6 mM low glucose media).
as §3

[7] = hypoxia (0.1% O2), 72 hours, low glucose media, read-out: Inhibition under Hypoxia (IC50, U87 cell viability)
[8] = normoxia (21% O2), 72 hours, low glucose media, read-out: Inhibition under Normoxia (IC50, U87 cell viability)

Row | Structure (SMILES) | Antitumor activity in vivo [1] | IC50 [2, 7] | IC50 ([2]; hypoxic conditions (0.1% O2), read-out: IC50 (cytotoxicity in U87 cells)) | IC50 [2, 8] | IC50 ([2]; normoxic conditions (21% O2), read-out: IC50 (cytotoxicity in U87 cells)) | Concentration giving substantial inhibition of cellular growth ([2]; hypoxic conditions) | Concentration required for substantial inhibition of cellular growth ([2]; normoxic conditions) | Acidic vesicular organelles (AVO), acridine orange staining [3] | Cell cycle distribution: G2/M phase [4] | Cell cycle distribution: Sub G0/G1 phase [4] | Viability Protection by D-Mannose Under Hypoxia (IC50 shift) [5] | Viability Protection by D-Galactose Under Hypoxia (IC50 shift) [5] | Viability Protection by D-Glucose Under Hypoxia (IC50 shift) [5] | Viability Protection by D-Mannose Under Normoxia (IC50 shift) [5] | Viability Protection by D-Galactose Under Normoxia (IC50 shift) [5] | Viability Protection by D-Glucose Under Normoxia (IC50 shift) [5] | Autophagosomes by electron microscopy ([6]; 5 mM, 72 h treatment, normoxia) | Stimulation of autophagy (detection of autophagosomes after treatment) ([6]; U87 Glioblastoma cells, preliminary studies)
1 | O=C[C@@H](F)[C@@H](O)[C@H](O)[C@H](O)CO [2-FM, 2-fluoro-2-deoxy-D-mannose] | comparable to that of temozolomide | – | – | – | – | – | – | – | – | – | – | – | – | – | – | – | – | –
2 | OC[C@H]1OC(O)C(F)(F)[C@@H](O)[C@@H]1O (stereo partly drawn) [DFG, 2-Deoxy-2,2-difluoro-D-arabino-hexopyranose] | – | 1500 to 1800 µM | 1200 µM | ≥ 1800 µM | 2900 µM | lower than 4 mM | above 6 mM | concentration dependent increase in acridine orange staining | significant increase in G2/M phase | no significant increase in Sub G0/G1 phase | − (0-0.5 mM IC50 shift after co-treatment with 0.1 mM of D-mannose) | − (0-0.5 mM IC50 shift after co-treatment with 5 mM of D-galactose.) | ++ (~1.5-2 mM IC50 shift after co-treatment with 5 mM of D-glucose) | + (~1 mM IC50 shift after co-treatment with 0.1 mM of D-mannose) | − (0-0.5 mM IC50 shift after co-treatment with 5 mM of D-galactose.) | + (~1 mM IC50 shift after co-treatment with 5 mM of D-glucose) | extensive presence of autophagosomes | –
3 | O=C[C@H](F)[C@@H](O)[C@H](O)[C@H](O)CO [2-FG, 2-fluoro-2-deoxy-D-glucose] | comparable to that of temozolomide | – | – | – | – | – | – | – | – | – | – | – | – | – | – | – | – | –
4 | O=CC[C@@H](O)[C@H](O)[C@H](O)CO [2-DG, 2-Deoxy-D-glucose, reference compound] | comparable to that of temozolomide | ≥ 1800 µM | – | ≥ 1800 µM | – | – | – | – | – | – | ++ (~1.5-2 mM IC50 shift after co-treatment with 0.1 mM of D-mannose) | − (0-0.5 mM IC50 shift after co-treatment with 5 mM of D-galactose.) | +++ (>5 mM IC50 shift after co-treatment with 5 mM of D-glucose) | +++ (>5 mM IC50 shift after co-treatment with 0.1 mM of D-mannose) | − (0-0.5 mM IC50 shift after co-treatment with 5 mM of D-galactose.) | + (~1 mM IC50 shift after co-treatment with 5 mM of D-glucose) | – | able to stimulate the process of autophagy
